Experimental findings from US20240109912A1, “TRICYCLIC PYRIMIDINES AS CYCLIN-DEPENDENT KINASE 7 (CDK7) INHIBITORS” (JANSSEN PHARMACEUTICA NV, priority 2020, published 2024) are described below.

Several values for one entry are separate records, joined by “and”; a condition that tells them apart may be missing. Equal entries are not always repeated. Where two headings read alike, the source gives them in different places.

One may read the kinact as the maximal first-order rate at which the target is inactivated.

In test [1] the test system is RNA polymerase II Serine 5 phosphorylation in A549 cells overexpressing CDK7 mutant (C312S). The experiment in a line: Imaging-based cellular RNA PolII Ser5 phosphorylation assay in A549 cells overexpressing CDK7-mutant (C312S). Type of test: cell-based, human. As to conditions: for IC50: Homo sapiens, A549, A549 cells overexpressing CDK7 mutant (C312S), read-out: CDK7_ A549 mutant hCDK7(pIC50) (converted); for CDK7_ A549 mutant hCDK7(pIC50): A549 cells overexpressing CDK7 mutant (C312S). On the procedure: Data were calculated and analyzed in Phaedra.
From this an IC50 value can be obtained.
In parallel this assay was performed in A549 cells overexpressing CDK7-mutant (C312S) to evaluate the effect of the covalent bond on potency and to screen for potential off-target effects. Mutation of Cysteine to Serine (C312S), a less nucleophilic amino acid, prevents CDK7 inhibitors from covalently binding to CDK7 and from inhibiting CDK7 activity in an irreversible manner. A stably transduced A549 cell pool was generated that overexpresses CDK7 mutant (C312S), but also expresses endogenous CDK7-WT. Covalent binders targeting the cysteine at position 312 will show a shift in potency in A549 cells overexpressing mutant C312S CDK7.

Test [2] concerns RNA polymerase II Serine 5 phosphorylation (CDK7) in A549 cells.
Excerpt: To evaluate inhibition of CDK7 kinase activity, a 384-well automated imaging assay was used. This assay detects Serine 5 phosphorylation on a unique heptapeptide sequence in the C-terminal domain of Rpb1 subunit of RNA polymerase II, the downstream substrate of CDK7. This heptapeptide sequence is repeated up to 52 times in the CTD of Rpb1.
RNA Polymerase II Serine 5 phosphorylation was detected using a specific rabbit Phospho-Rpb1 CTD (Ser5) antibody. A549 adenocarcinoma human alveolar basal epithelial cells were seeded in 20 μl medium (DMEM supplemented with 1% Fetal Bovine Serum (heat inactivated 30′ 56° C.), 2 mM L-glutamine, 50 U/ml penicillin 50 μg/ml streptomycin, 1 mM sodium pyruvate and 50 mM hepes) at 1000 cells/well and cultured in poly-D-lysine coated μclear 384 black plates for 20 hours at 37° C. and 5% CO2.
After incubation cells were challenged with compound for 3 hours at 37° C. and 5% CO2. DMSO was used as high control and as low control 10 μM of the following reference compound was used:
40 nl of test compounds and controls were spotted in cell plates using Echo Liquid Handler (Echo 550, Labcyte). Incubation was followed by 20 minutes fixation with 20 μl 10% formaldehyde at room temperature. Medium/formaldehyde solution was removed, plates were washed 3 times with 30 μl D-PBS (w/o Ca^2+ and Ma^2+) and permeabilization was done by adding 20 μl ice cold methanol for 20 minutes. Cells were washed again 3 times with 30 μl D-PBS and 20 μl blocking buffer (25 ml fetal bovine serum in 500 ml D-PBS) was added for 1 hour.
After removing blocking buffer 20 μl 1/1000 primary antibody rabbit Phospho-Rpb1 CTD (Ser5) antibody was added which binds to the phosphorylated Serine5 of the heptapeptide sequences in the CTD of Rpb1. […] Last, plates were washed 2 times with 30 μl D-PBS and wells were filled with 40 μL D-PBS, plates were sealed (Thermowell sealing tape) and stored at 4° C. until reading. Plates were read with Opera Phenix (Perkin Elmer) with 10× air objective. Data were calculated and analyzed in Phaedra.
IC50 values were calculated using the following formula
Average value of all HC's and all LC's are used for normalizations.
% Effect=100−(sample-LC)/(HC-LC)×100
% Control=(sample/HC)×100
From this an IC50 value can be obtained. An estimate of the slope of the plot in terms of the Hill coefficient is also obtained.
Test [3] deals with CDK7/cyclinH/MAT1 trimeric complex (Homo sapiens (Human), UniProt P50613). Nature of the test: In vitro CDK7 assay, potency of irreversible covalent inhibitors (kinact/KI). As to conditions: for Ki: CDK7 (20 nM enz.) (KI, μM); for CDK7 (20 nM enz.) (kinact, s^−1) / CDK7 (20 nM enz.) (kinact/ KI, M^−1*s^−1) / Ki: 20 nM enz.; for kinact: read-out: CDK7 (20 nM enz.) (kinact, s^−1), 20 nM enz.
Sequence of CDK7/cyclinH/MAT1 trimeric complex (P50613 whole entry): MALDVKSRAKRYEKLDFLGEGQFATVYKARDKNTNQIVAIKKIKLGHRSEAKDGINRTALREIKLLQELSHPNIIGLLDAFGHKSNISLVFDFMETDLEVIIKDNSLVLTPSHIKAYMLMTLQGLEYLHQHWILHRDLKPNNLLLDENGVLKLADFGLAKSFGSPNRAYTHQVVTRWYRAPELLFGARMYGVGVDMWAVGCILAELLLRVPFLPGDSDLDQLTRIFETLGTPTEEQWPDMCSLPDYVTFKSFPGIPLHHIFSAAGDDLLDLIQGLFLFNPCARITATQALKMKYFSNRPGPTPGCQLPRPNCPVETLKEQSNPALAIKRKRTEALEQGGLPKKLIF
Sequence of CDK7/cyclinH/MAT1 trimeric complex (P51946 whole entry partner): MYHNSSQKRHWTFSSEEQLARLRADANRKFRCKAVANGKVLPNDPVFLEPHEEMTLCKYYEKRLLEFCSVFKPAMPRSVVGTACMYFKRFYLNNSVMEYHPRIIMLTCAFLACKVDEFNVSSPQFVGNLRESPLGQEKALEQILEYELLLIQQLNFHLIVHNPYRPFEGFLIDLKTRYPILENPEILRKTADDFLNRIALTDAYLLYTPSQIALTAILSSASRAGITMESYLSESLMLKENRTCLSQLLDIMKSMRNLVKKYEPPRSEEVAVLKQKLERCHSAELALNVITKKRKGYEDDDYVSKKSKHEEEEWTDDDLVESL
Sequence of CDK7/cyclinH/MAT1 trimeric complex (P51948 whole entry partner): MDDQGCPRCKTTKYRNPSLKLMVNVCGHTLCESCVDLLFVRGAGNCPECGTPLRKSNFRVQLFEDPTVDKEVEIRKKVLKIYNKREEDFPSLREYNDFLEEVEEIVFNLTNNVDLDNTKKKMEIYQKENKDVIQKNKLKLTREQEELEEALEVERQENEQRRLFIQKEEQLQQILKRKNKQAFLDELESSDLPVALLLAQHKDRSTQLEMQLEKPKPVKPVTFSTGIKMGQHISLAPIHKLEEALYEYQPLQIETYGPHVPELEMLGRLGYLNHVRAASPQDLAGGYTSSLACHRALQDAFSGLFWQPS

On to `Cc1cc(C2CCN(C3CN(C(=O)C#CCN(C)C)C3)CC2)cc2c1O[C@H](C)c1c(ncnc1N1CCS(=O)(=O)CC1)N2` [compound 169], for which the IC50 in test [1] is 4170 nM; in test [2], less than 2.45 nM.

As for `CCC#CC(=O)N1CC(N2CCC(c3cc(C)c4c(c3)Nc3ncnc(N5CCS(=O)(=O)CC5)c3[C@@H](C)O4)CC2)C1` [compound 163], the results for the IC50 in test [1] and in test [2] were greater than 10000 nM and roughly 31.6 nM, respectively.

On to `CC#CC(=O)N1CC[C@@H](N2CC(c3cc(C)c4c(c3)Nc3ncnc(N5CCS(=O)(=O)CC5)c3[C@@H](C)O4)C2)C1` [compound 130], for which the IC50 in test [1] was greater than 10000 nM.

`CC#CC(=O)N1CC[C@H](N2CC(c3cc(C)c4c(c3)Nc3ncnc(N5CCS(=O)(=O)CC5)c3CO4)C2)C1` [compound 126]: the figures for the IC50 in test [1] and in test [2] were greater than 10000 nM and 513 nM, respectively.

As to `CC#CC(=O)N1CCN([C@H]2CC[C@H](c3cc(C)c4c(c3)Nc3ncnc(N5CCS(=O)(=O)CC5)c3[C@@H](C)O4)CC2)CC1` [compound 161], the IC50 is greater than 10000 nM in test [1] and less than 9.77 nM in test [2].

Consider `Cc1cc(C2CCN(C3CN(C(=O)C#CC(C)C)C3)CC2)cc2c1O[C@H](C)c1c(ncnc1N1CCS(=O)(=O)CC1)N2` [compound 174], for which the IC50 in test [1] is 7760 nM; in test [2], 58.9 nM.

Consider `CC#CC(=O)N1CC(N2C3CCC2CC(c2cc(C)c4c(c2)Nc2ncnc(N5CCS(=O)(=O)CC5)c2[C@@H](C)O4)C3)C1` (mixture of isomers) [compound 183], for which, in test [1], the “CDK7_ A549 mutant hCDK7(pIC50)” value was less than 5. The IC50 in test [2] was 347 nM.

Consider `CC#CC(=O)N1CCC(N2CCC(c3cc(C)c4c(c3)Nc3ncnc(N5CCS(=O)(=O)CC5)c3[C@@H](C)O4)CC2)CC1` [compound 156], for which the IC50 in test [1] is 1950 nM; in test [2] it was less than 2.45 nM.

Consider `Cc1cc(C2CCN(C3CN(C(=O)C#CCCN(C)C)C3)CC2)cc2c1O[C@H](C)c1c(ncnc1N1CCS(=O)(=O)CC1)N2` [compound 178], for which the values for the IC50 in test [1] and in test [2] were 5750 nM and less than 9.77 nM, respectively.

With `C=CC(=O)N1CC[C@H](N2CC(c3cc(C)c4c(c3)Nc3ncnc(N5CCS(=O)(=O)CC5)c3[C@@H](C)O4)C2)C1` (single isomer, unassigned) [compound 117], in test [1], the “CDK7_ A549 mutant hCDK7(pIC50)” value is less than 5 and the IC50 was greater than 10000 nM. Besides, in test [3], the “CDK7 (20 nM enz.) (kinact, s^−1)” value was 8.4e-05 s⁻¹ and 4.63e-05 s⁻¹; the “CDK7 (20 nM enz.) (kinact/ KI, M^−1*s^−1)” value was 1546.72 M⁻¹ s⁻¹ and 2895.79 M⁻¹ s⁻¹ and 2153.89 M⁻¹ s⁻¹; the Ki is 0.034 µM and 0.029 µM and 0.0215 µM; the kinact was 5.26e-05 s⁻¹. In addition, the kinact/KI in test [3] (read-out: CDK7 (20 nM enz.) (kobs/[I], M^−1*s^−1), 20 nM enz.) amounted to 800 M⁻¹ s⁻¹.

`CC#CC(=O)N1CC(N2C3CCC2CC(c2cc(C)c4c(c2)Nc2ncnc(N5CCS(=O)(=O)CC5)c2[C@@H](C)O4)C3)C1` (mixture of isomers) [compound 182]: the IC50 in test [1] was 6030 nM; in test [2], roughly 72.4 nM.

Turning to `Cc1cc(C2CN([C@H]3CCN(C(=O)C#CCCN(C)C)C3)C2)cc2c1O[C@H](C)c1c(ncnc1N1CCS(=O)(=O)CC1)N2` (single isomer, unassigned) [compound 176], the IC50 was 9120 nM in test [1] and less than 9.77 nM in test [2].

As for `CC#CC(=O)N1CC[C@H](N2CC(c3cc(C)c4c(c3)Nc3ncnc(N5CCS(=O)(=O)CC5)c3[C@@H](C)O4)C2)C1` [compound 128], in test [1], the “CDK7_ A549 mutant hCDK7(pIC50)” value is given as less than 5 and the IC50 was greater than 10000 nM.

For `Cc1cc(C2CN([C@@H]3CCN(C(=O)C#CCCN(C)C)C3)C2)cc2c1O[C@H](C)c1c(ncnc1N1CCS(=O)(=O)CC1)N2` (single isomer, unassigned) [compound 177], the IC50 is 7240 nM in test [1] and roughly 12.9 nM in test [2].

With `CCC#CC(=O)N1CC[C@H](N2CC(c3cc(C)c4c(c3)Nc3ncnc(N5CCS(=O)(=O)CC5)c3[C@@H](C)O4)C2)C1` (single isomer, unassigned) [compound 168], the IC50 in test [1] was greater than 10000 nM; in test [2] it was 132 nM.

As to `C=CC(=O)N1CC[C@H](N2CCC(c3cc(C)c4c(c3)Nc3ncnc(N5CCS(=O)(=O)CC5)c3CO4)CC2)C1` (single isomer, unassigned) [compound 115], in test [1], the “CDK7_ A549 mutant hCDK7(pIC50)” value is on record as less than 5 and the IC50 is greater than 10000 nM. In addition, in test [3], the “CDK7 (20 nM enz.) (kinact, s^−1)” value was determined as 5.98e-05 s⁻¹; the “CDK7 (20 nM enz.) (kinact/ KI, M^−1*s^−1)” value turned out to be 1377.97 M⁻¹ s⁻¹; the Ki was 0.0595 µM and 0.0434 µM; the inactivation rate constant (kinact) was found to be 7.64e-05 s⁻¹. Moreover, the kinact/KI in test [3] (read-out: CDK7 (20 nM enz.) (kinact/ KI, M^−1*s^−1), 20 nM enz.) was found to be 1280 M⁻¹ s⁻¹.

As to `CC#CC(=O)N1CC(N2CCC(c3cc(C)c4c(c3)Nc3ncnc(N5CCS(=O)(=O)CC5)c3[C@@H](C)O4)CC2)C1` [compound 157], the “CDK7_ A549 mutant hCDK7(pIC50)” value in test [1] is recorded as 5.12. In test [2], this compound gave an IC50 of 75.9 nM.

On to `CCC#CC(=O)N1CC[C@@H](N2CC(c3cc(C)c4c(c3)Nc3ncnc(N5CCS(=O)(=O)CC5)c3[C@@H](C)O4)C2)C1` (single isomer, unassigned) [compound 167], for which the values for the IC50 in test [1] and in test [2] were greater than 10000 nM and 55 nM, respectively.

As to `C=CC(=O)N1CC[C@@H](N2CC(c3cc4c(c(C5CC5)c3)O[C@@H](C)c3c(ncnc3N3CCS(=O)(=O)CC3)N4)C2)C1` (single isomer, unassigned) [compound 98], the IC50 was greater than 10000 nM in test [1] and 347 nM in test [2].

As for `CC#CC(=O)N1CC[C@@H](N2CC(c3cc(C)c4c(c3)Nc3ncnc(N5CCS(=O)(=O)CC5)c3CO4)C2)C1` [compound 127], the IC50 was greater than 10000 nM in test [1] and 513 nM in test [2].

Consider `CC#CC(=O)N1CCN([C@H]2CC[C@@H](c3cc(C)c4c(c3)Nc3ncnc(N5CCS(=O)(=O)CC5)c3[C@@H](C)O4)CC2)CC1` [compound 162], for which the IC50 in test [1] is greater than 10000 nM; in test [2], 209 nM.

Regarding `CC#CC(=O)N1CC(N2CC(c3cc(C)c4c(c3)Nc3ncnc(N5CCS(=O)(=O)CC5)c3CO4)C2)C1` [compound 132], the IC50 in test [1] is greater than 10000 nM; in test [2] it was 813 nM.

Consider `C=CC(=O)N1CC(N2CCC(c3cc(C)c4c(c3)Nc3ncnc(N5CCOC6(COC6)C5)c3CO4)CC2)C1` [compound 68], for which the figures for the IC50 in test [1] and in test [2] were greater than 10000 nM and 87.1 nM, respectively.

As for `CC#CC(=O)N1CCOC([C@H]2C[C@H](c3cc(C)c4c(c3)Nc3ncnc(N5CCS(=O)(=O)CC5)c3[C@@H](C)O4)C2)C1` (single isomer, unassigned) [compound 186], in test [1], the “CDK7_ A549 mutant hCDK7(pIC50)” value was less than 5. In test [2], this compound had an IC50 of 269 nM.

In the case of `CC#CC(=O)N1CCC(N2CCC(c3cc(C)c4c(c3)Nc3ncnc(N5CCS(=O)(=O)CC5)c3CO4)CC2)C1` (stereo not drawn) [compound 152], the IC50 in test [1] is roughly 8320 nM; in test [2], 64.6 nM.

With `CC#CC(=O)N1CCOC([C@H]2C[C@@H](c3cc(C)c4c(c3)Nc3ncnc(N5CCS(=O)(=O)CC5)c3[C@@H](C)O4)C2)C1` (single isomer, unassigned) [compound 188], the “CDK7_ A549 mutant hCDK7(pIC50)” value in test [1] was less than 5. In test [2], this compound gave an IC50 of 389 nM.

For the compound `Cc1cc(C2CN([C@@H]3CCN(C(=O)C#CCN(C)C)C3)C2)cc2c1O[C@H](C)c1c(ncnc1N1CCS(=O)(=O)CC1)N2` (single isomer, unassigned) [compound 171], the figures for the IC50 in test [1] and in test [2] were 8510 nM and less than 9.77 nM, respectively.

Consider `CC#CC(=O)N1CCOC([C@H]2C[C@@H](c3cc(C)c4c(c3)Nc3ncnc(N5CCS(=O)(=O)CC5)c3[C@@H](C)O4)C2)C1` (single isomer, unassigned) [compound 187], for which the IC50 in test [1] is greater than 10000 nM; in test [2], 6170 nM.

Consider `C=CC(=O)N1CCC(N2CC(c3cc(C)c4c(c3)Nc3ncnc(N5CCS(=O)(=O)CC5)c3CO4)C2)C1` (stereo not drawn) [compound 112], for which the IC50 in test [1] was greater than 10000 nM; in test [2], 204 nM.

Consider `C=CC(=O)N1CC[C@@H](N2CC(c3cc(C)c4c(c3)Nc3ncnc(N5CCS(=O)(=O)CC5)c3[C@@H](C)O4)C2)C1` (single isomer, unassigned) [compound 119], for which, in test [1], the “CDK7_ A549 mutant hCDK7(pIC50)” value amounted to 4.95 and the IC50 was greater than 10000 nM. In test [3], the “CDK7 (20 nM enz.) (kinact, s^−1)” value is 6.1e-05 s⁻¹ and 4.27e-05 s⁻¹; the “CDK7 (20 nM enz.) (kinact/ KI, M^−1*s^−1)” value was 1923.49 M⁻¹ s⁻¹ and 1433.61 M⁻¹ s⁻¹ and 1881.64 M⁻¹ s⁻¹; the Ki is 0.0249 µM and 0.0426 µM and 0.0227 µM; the kinact worked out at 4.79e-05 s⁻¹.

As for `CC#CC(=O)N1CC(N2CCC(c3cc4c(c(C)n3)O[C@H](C)c3c(ncnc3N3CCS(=O)(=O)CC3)N4)CC2)C1` (single isomer, unassigned) [compound 139], the IC50 in test [1] is greater than 10000 nM. In addition, in test [3], the “CDK7 (20 nM enz.) (kinact, s^−1)” value stood at 6.2e-05 s⁻¹; the Ki is 0.135 µM and 0.0466 µM; the kinact turned out to be 5.63e-05 s⁻¹.

Regarding `CC#CC(=O)N1CC[C@H](N2CC(c3cc(C)c4c(c3)Nc3ncnc(N5CCS(=O)(=O)CC5)c3[C@H](C)O4)C2)C1` (single isomer, unassigned) [compound 129], in test [1], the “CDK7_ A549 mutant hCDK7(pIC50)” value is on record as less than 5 and the IC50 was greater than 10000 nM.

Turning to `CC#CC(=O)N1CC[C@@H](N2CC(c3cc(C)c4c(c3)Nc3ncnc(N5CCS(=O)(=O)CC5)c3[C@H](C)O4)C2)C1` (single isomer, unassigned) [compound 131], in test [1], the “CDK7_ A549 mutant hCDK7(pIC50)” value is given as less than 5 and the IC50 is greater than 10000 nM.
